# From ChEMBL document CHEMBL5050844 (2019)
# Assays:
# [1] = biological target: T1, E3 ubiquitin-protein ligase CBL-B (Homo sapiens, UniProt Q13191); assay: Binding affinity towards N-terminal biotinylated Avi-tagged human CBL-B (36 to 427 residues) measured by surface plasmon resonance assay
# [2] = Induction of anti-CD3/CD28 antibodies-stimulated human T cell activation at 4 uM assessed fold increase in IL-2 secretion measured by ELISA assay; assay type: functional, T cell line
# [3] = Induction of anti-CD3/CD28 antibodies-stimulated human T cell activation at 0.3 uM assessed fold increase in IL-2 secretion measured by ELISA assay; assay type: functional, T cell line
# [4] = Induction of anti-CD3/CD28 antibodies-stimulated human T cell activation at 1 uM assessed fold increase in IL-2 secretion measured by ELISA assay; assay type: functional, T cell line
# [5] = Induction of anti-CD3 antibodies-stimulated human T cell activation at 1 uM assessed fold increase in CD25 expression measured by ELISA assay; assay type: functional, T cell line; note: reference of the scale not given here
# [6] = Induction of anti-CD3/CD28 antibodies-stimulated human T cell activation at 0.3 uM assessed fold increase in CD25 expression measured by ELISA assay; assay type: functional, T cell line
# [7] = Induction of anti-CD3 antibodies-stimulated human T cell activation at 8 uM assessed fold increase in IL-2 secretion measured by ELISA assay; assay type: functional, T cell line; note: reference of the scale not given here
# [8] = Induction of anti-CD3/CD28 antibodies-stimulated human T cell activation at 4 uM assessed fold increase in CD25 expression measured by ELISA assay; assay type: functional, T cell line
# [9] = Induction of anti-CD3 antibodies-stimulated human T cell activation at 1 uM assessed fold increase in IL-2 secretion measured by ELISA assay; assay type: functional, T cell line; note: reference of the scale not given here
# [10] = Induction of anti-CD3/CD28 antibodies-stimulated human T cell activation at 1 uM assessed fold increase in CD25 expression measured by ELISA assay; assay type: functional, T cell line
# [11] = Induction of anti-CD3 antibodies-stimulated human T cell activation at 8 uM assessed fold increase in CD25 expression measured by ELISA assay; assay type: functional, T cell line; note: reference of the scale not given here
# [12] = biological target: T1, E3 ubiquitin-protein ligase CBL-B; assay: Inhibition of N-terminal Avi-tagged human CBL-B (36 to 427 residues) incubated with 60 nM Src kinase for 1.5 hrs followed by incubation with fluorescently labeled UbcH5B-Ub for 1 hr and measured by TR-FRET assay; assay type: single protein
# T1 sequence (Q13191 whole entry, the tested form may be a part): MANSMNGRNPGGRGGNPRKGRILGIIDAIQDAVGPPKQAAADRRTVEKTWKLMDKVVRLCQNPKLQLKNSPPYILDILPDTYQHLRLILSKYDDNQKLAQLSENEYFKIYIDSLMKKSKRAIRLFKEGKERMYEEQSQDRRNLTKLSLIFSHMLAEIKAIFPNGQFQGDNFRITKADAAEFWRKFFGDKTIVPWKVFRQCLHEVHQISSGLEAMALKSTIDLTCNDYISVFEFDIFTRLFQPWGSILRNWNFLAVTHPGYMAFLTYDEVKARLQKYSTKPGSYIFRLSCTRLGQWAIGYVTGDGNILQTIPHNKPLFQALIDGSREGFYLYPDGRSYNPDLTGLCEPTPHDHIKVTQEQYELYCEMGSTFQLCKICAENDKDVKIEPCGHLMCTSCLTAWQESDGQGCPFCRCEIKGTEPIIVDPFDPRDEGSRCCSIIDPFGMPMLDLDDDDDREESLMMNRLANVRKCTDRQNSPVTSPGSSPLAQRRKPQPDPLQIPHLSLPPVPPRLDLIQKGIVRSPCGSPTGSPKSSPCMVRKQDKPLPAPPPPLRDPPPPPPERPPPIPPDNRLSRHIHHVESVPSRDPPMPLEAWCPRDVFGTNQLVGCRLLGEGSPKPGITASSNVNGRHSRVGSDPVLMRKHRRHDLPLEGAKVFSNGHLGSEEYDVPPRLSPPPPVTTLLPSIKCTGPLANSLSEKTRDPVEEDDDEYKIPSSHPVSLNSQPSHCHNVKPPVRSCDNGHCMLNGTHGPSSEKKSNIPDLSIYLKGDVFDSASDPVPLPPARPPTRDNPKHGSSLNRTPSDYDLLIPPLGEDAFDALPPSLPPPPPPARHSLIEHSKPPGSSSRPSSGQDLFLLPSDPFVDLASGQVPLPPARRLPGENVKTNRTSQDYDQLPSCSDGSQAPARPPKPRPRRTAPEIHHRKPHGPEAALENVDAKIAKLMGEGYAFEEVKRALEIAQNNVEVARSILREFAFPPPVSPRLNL
smiles,measurement,setting,value
"C[C@@H](Sc1nncn1C)c1cccc(NC(=O)c2cc(C(=O)N3CCC(O)C3)ccn2)c1 (single isomer, unassigned)",Kd,[1],> 10 µM
C[C@H](Sc1nncn1C)c1cccc(NC(=O)c2cc(C(=O)N3CCCC3)ccn2)c1,Kd,[1],> 10 µM
C[C@@H](Sc1nncn1C)c1ccnc(N2Cc3c(cccc3C(F)(F)F)C2=O)c1,Kd,[1],> 10 µM
C[C@H](Sc1nncn1C)c1cccc(NC(=O)c2cc(NS(=O)(=O)CCO)ccn2)c1,Kd,[1],> 10 µM
C[C@H](Cc1nnco1)c1cccc(N2Cc3c(cccc3C(F)(F)F)C2=O)c1,Kd,[1],> 10 µM
C=CCC(Sc1nncn1C)c1cccc(NC(=O)c2ccc3ccccc3n2)c1 (configuration not stated),Kd,[1],> 10 µM
C[C@H](Cc1ncnn1C)c1cccc(N2Cc3c(cccc3C(F)(F)F)C2=O)c1,Kd,[1],> 10 µM
C[C@@H](Cc1nncn1C)c1ccnc(N2Cc3c(cccc3C(F)(F)F)C2=O)c1,Kd,[1],> 10 µM
C=CCC(Sc1nncn1C)c1cccc(NC(=O)c2cc3ccccc3cn2)c1 (configuration not stated),Kd,[1],> 10 µM
Cc1cnc(C(=O)Nc2cccc([C@H](C)Sc3nncn3C)c2)cc1C(F)(F)F,Kd,[1],> 10 µM
Cn1cnnc1C(F)(F)[C@](C)(F)c1cccc(N2Cc3c(cc(CN4CC(F)C4)cc3C(F)(F)F)C2=O)c1,fold change (FC),[2],>=7.5
same,fold change (FC),[3],1.01
same,Kd,[1],< 0.1 µM
same,fold change (FC),[4],5
same,fold change (FC),[5],0.801
same,fold change (FC),[6],1.01
same,fold change (FC),[7],>=0.201
same,fold change (FC),[8],1.31
same,fold change (FC),[9],0.101
same,fold change (FC),[10],1.01
same,fold change (FC),[11],>=1.001
C[C@H](Cc1nncn1C)c1cccc(N2Cc3c(cc(CN4CC[C@H](O)C4)cc3C(F)(F)F)C2=O)c1,Kd,[1],< 0.1 µM
same,IC50,[12],< 0.1 µM
C[C@H](Sc1nncn1C)c1cccc(NC(=O)c2cc(C(=O)N3C[C@H](O)C[C@H]3C)ccn2)c1,Kd,[1],> 10 µM
Cn1cnnc1CC1(c2cccc(N3Cc4c(cc(CN5CC[C@H](F)C5)cc4C4CC4)C3=O)c2)COC1,fold change (FC),[3],>=7.5
same,Kd,[1],< 0.1 µM
same,IC50,[12],< 0.1 µM
same,fold change (FC),[4],>=7.5
same,fold change (FC),[5],>=1.001
same,fold change (FC),[6],1.31
same,fold change (FC),[9],0.151
same,fold change (FC),[10],1.31
C[C@H](Sc1nncn1C)c1cccc(NC(=O)c2cc(C(=O)N3CCC[C@@H](O)C3)ccn2)c1,Kd,[1],> 10 µM
CC1=CC(C(=O)Nc2cccc([C@H](C)Sc3nncn3C)c2)=NC(=O)C1,Kd,[1],> 10 µM
same,IC50,[12],≥ 3 µM
C[C@H](c1cc2c(c(C(F)(F)F)c1)CN(c1cccc(C3([C@@H](F)c4nncn4C)COC3)c1)C2=O)N1CCC2(CC2)C1,fold change (FC),[3],>=7.5
same,Kd,[1],< 0.1 µM
same,IC50,[12],< 0.1 µM
same,fold change (FC),[4],>=7.5
same,fold change (FC),[5],>=1.001
same,fold change (FC),[6],>=1.76
same,fold change (FC),[9],>=0.201
same,fold change (FC),[10],>=1.76
CC(Sc1nncn1C)c1ccc(F)c(NC(=O)c2ccc3ccccc3n2)c1 (configuration not stated),Kd,[1],> 10 µM
C[C@H](Sc1nncn1C)c1cccc(NC(=O)c2cc3cc(OCC(=O)O)ccc3cn2)c1,Kd,[1],> 10 µM
C[C@H](Sc1nncn1C)c1cccc(NC(=O)c2cc(C(=O)N3CCC[C@H](O)C3)ccn2)c1,Kd,[1],> 10 µM
C[C@H](Sc1nncn1C)c1ccnc(NC(=O)c2cc(C(F)(F)F)c(Cl)cn2)c1,Kd,[1],> 10 µM
C[C@H](c1cc2c(c(C(F)(F)F)c1)CN(c1cccc(C3(C(F)(F)c4nncn4C)COC3)c1)C2=O)N1CC[C@H](F)C1,fold change (FC),[3],>=7.5
same,Kd,[1],< 0.1 µM
same,IC50,[12],< 0.1 µM
same,fold change (FC),[4],>=7.5
same,fold change (FC),[5],>=1.001
same,fold change (FC),[6],>=1.76
same,fold change (FC),[9],>=0.201
same,fold change (FC),[10],>=1.76
Cn1cnnc1CC1(c2cccc(NC(=O)c3cc(Cn4ccnn4)nc(C4CC4)n3)c2)COC1,fold change (FC),[3],1.01
same,Kd,[1],< 0.1 µM
same,IC50,[12],< 0.1 µM
same,fold change (FC),[4],2.51
same,fold change (FC),[5],0.801
same,fold change (FC),[6],1.01
same,fold change (FC),[9],0.101
same,fold change (FC),[10],1.31
C[C@H](Sc1nncn1C)c1cccc(NC(=O)c2cc(C(=O)N3C[C@@H](O)C[C@@H]3C)ccn2)c1,Kd,[1],> 10 µM
CC(c1cccc(N2Cc3c(cccc3C(F)(F)F)C2=O)c1)C(F)(F)c1nncn1C (configuration not stated),Kd,[1],< 0.1 µM
C[C@H](Sc1nncn1C)c1cccc(NC(=O)c2cccc(C(F)(F)F)c2)c1,Kd,[1],> 10 µM
CC(C)c1cccc(C(=O)Nc2cccc([C@H](C)Sc3nncn3C)c2)c1,Kd,[1],> 10 µM
CCn1cnnc1C[C@H](C)c1cccc(NC(=O)c2cc(S(C)(=O)=O)cc(C3CC3)n2)c1,Kd,[1],≥ 3 µM
same,IC50,[12],≥ 3 µM
C[C@@H](Sc1nncn1C)c1ccc(F)c(NC(=O)c2cccc(C(F)(F)F)n2)c1,Kd,[1],> 10 µM
COc1c(C(=O)Nc2cccc([C@H](C)Sc3nncn3C)c2)cccc1C(F)(F)F,Kd,[1],> 10 µM
Cn1cnnc1CC(C)(C)c1cccc(NC(=O)c2cccc(C(F)(F)F)n2)c1,fold change (FC),[2],>=7.5
same,fold change (FC),[3],1.01
same,IC50,[12],< 0.1 µM
same,fold change (FC),[4],2.51
same,fold change (FC),[5],0.801
same,fold change (FC),[6],1.01
same,fold change (FC),[7],>=0.201
same,fold change (FC),[8],1.31
same,fold change (FC),[9],>=0.201
same,fold change (FC),[10],1.01
same,fold change (FC),[11],>=1.001
C[C@H](Cc1nncn1C)c1cccc(NC(=O)c2cc(O[C@@H]3CC[C@@H](O)C3)ccn2)c1 (relative stereo),fold change (FC),[2],5
same,fold change (FC),[3],2.51
same,IC50,[12],< 0.1 µM
same,fold change (FC),[4],2.51
same,fold change (FC),[5],0.801
same,fold change (FC),[6],1.01
same,fold change (FC),[7],0.101
same,fold change (FC),[8],1.31
same,fold change (FC),[9],0.051
same,fold change (FC),[10],1.01
same,fold change (FC),[11],>=1.001
CC(O)C1CN(C(=O)c2ccnc(C(=O)Nc3cccc([C@H](C)Cc4nncn4C)c3)c2)C1 (some centres not stated),Kd,[1],< 0.1 µM
C[C@H](Cc1nncn1C)c1cccc(N2Cc3c(cc([C@@H](C)N4CC(O)C4)cc3C(F)(F)F)C2=O)c1,fold change (FC),[2],>=7.5
same,fold change (FC),[3],2.51
same,IC50,[12],< 0.1 µM
same,fold change (FC),[4],5
same,fold change (FC),[5],0.801
same,fold change (FC),[6],1.01
same,fold change (FC),[7],>=0.201
same,fold change (FC),[8],1.31
same,fold change (FC),[9],>=0.201
same,fold change (FC),[10],1.31
same,fold change (FC),[11],>=1.001
C[C@@H](c1cc2c(c(C(F)(F)F)c1)CN(c1cccc(C3(Cc4nncn4C)COC3)c1)C2=O)N1CCC(F)(F)C1,fold change (FC),[2],>=7.5
same,fold change (FC),[3],2.51
same,IC50,[12],< 0.1 µM
same,fold change (FC),[4],>=7.5
same,fold change (FC),[5],>=1.001
same,fold change (FC),[6],1.31
same,fold change (FC),[7],>=0.201
same,fold change (FC),[8],1.31
same,fold change (FC),[9],0.151
same,fold change (FC),[10],1.31
same,fold change (FC),[11],>=1.001
C[C@H](Sc1nncn1C)c1cccc(NC(=O)c2ccnc(C3CC3)n2)c1,fold change (FC),[2],5
same,fold change (FC),[3],<=1
same,IC50,[12],< 0.1 µM
same,fold change (FC),[4],2.51
same,fold change (FC),[5],0.601
same,fold change (FC),[6],1.01
same,fold change (FC),[7],0.051
same,fold change (FC),[8],1.31
same,fold change (FC),[9],<=0.05
same,fold change (FC),[10],1.01
same,fold change (FC),[11],>=1.001
